Assay results: patent US8273771B2, “Ischemic disorder or disease inhibitors” (Pronas Pharma AB, priority 2007, dated 2012)
Like-named read-outs stand apart in the source and are kept apart here.

How the values were obtained:
[1] = tested on: rats with induced SAH; experiment: Neurological scoring in rat subarachnoid hemorrhage model; format: in vivo; settings: established scoring system, SAH+vehicle score 1, sham score 0
Source text: Subarachnoid hemorrhage was induced by a model originally devised by Svendgaard et al and carefully described by Prunell et al (2003). Male Sprague-Dawley rats (350-400 g) were anaesthetized using 5% halothane (Halocarbon Laboratories, River Edge, N.J.) in N2O/O2 (30:70). The rat was intubated and artificially ventilated with inhalation of 0.5-1.5% halothane in N2O/O2 (70:30) during the surgical procedure. The depth of anaesthesia was carefully monitored and the respiration checked by regularly withdrawing arterial blood samples for blood gas analysis (Radiometer, Copenhagen, Denmark). An electric temperature probe was inserted into the rectum of the rat to record the temperature, which was maintained at 37° C. An arterial catheter to measure blood pressure was placed in the tail artery and a catheter to monitor intracranial pressure (ICP) was placed in the subarachnoid space under the subocciptal membrane. At either side of the skull, 3 mm from the midline and 4 mm anteriorly from the bregma, holes were drilled through the skull bone down to dura mater (without perforation) allowing the placement of two laser-Doppler flow probes to measure cortical CBF. […]
During the period, the rat was monitored regularly, and if showing severe distress the animal was prematurely killed. […]

[2] = tested on: AT1 receptor mRNA; experiment: Real-time PCR of receptor mRNA in cerebral arteries after SAH; format: in vivo, rat; settings: MCA, BA and circle of Willis grouped; SAH rats
[3] = tested on: AT2 receptor mRNA; experiment: as above; format: in vivo, rat; settings: MCA, BA and circle of Willis grouped
[4] = tested on: rats after MCA occlusion and reperfusion; settings: for brain damage (% of total volume): control 24.8±2%; for oedema (% of total volume): control 1.01±0.03
Procedure: This group of animals went through the same procedure as the above-mentioned SAH animals. Two hours after the MCA occlusion, the rat was re-anesthetized to allow for withdrawal of the filament and subsequent reperfusion of the brain. In conjunction with the reperfusion (0 h), at 6 h or at 12 h afterwards, and at 24 h after the start of the reperfusion in the same animal, the rats were injected intraperitoneal with 30 mg/kg U0126 dissolved in dimethylsulfoxide (DMSO). […] Control rats were injected with an equal volume of DMSO at the same time points.

| Compound | neurological score [1] | enhanced expression of AT1 receptor mRNA [2] | expression of AT2 receptor mRNA, difference between sham, SAH and treated SAH [3] | brain damage (% of total volume) ([4]; 30 mg/kg i.p. starting after 12 h) | brain damage (% of total volume) ([4]; 30 mg/kg i.p. starting at 0 h after MCAO reperfusion) | brain damage (% of total volume) ([4]; 30 mg/kg i.p. starting at 6 h) | lowest dose that elicited a clear significant effect on infarct volume ([4]; intraperitoneal, doses 10 to 100 mg/kg evaluated, preliminary experiments) | oedema (% of total volume) ([4]; treatment starting at 0 h) | oedema (% of total volume) ([4]; treatment starting at 6 h) | oedema (% of total volume) ([4]; treatment starting at 12 h) |
| --- | --- | --- | --- | --- | --- | --- | --- | --- | --- | --- |
| Cn1cc(C2=C(c3cn(CCCN)c4ccccc34)C(=O)NC2=O)c2ccccc21 [RO-31-7549] | 0 |  |  |  |  |  |  |  |  |  |
| Oc1cc(-c2nc(-c3ccccc3)[nH]c2-c2ccncc2)ccc1Cl [SB386023-b] | 0 | inhibited | no difference |  |  |  |  |  |  |  |
| N#CC(=C(/N)Sc1ccccc1N)/C(C#N)=C(\N)Sc1ccccc1N [U0126] |  |  |  | 20.3±1% | 11.8±2% | 14.6±3% | 30 mg/kg | 1.05±0.02 % of total volume | 0.98±0.02 % of total volume | 1.02±0.04 % of total volume |
